Structures can show the parent of a compound that is named as a salt. Non-standard residues stand in square brackets, D forms with d. Residues, ends and D or L forms follow the SMILES beside them. ξ: configuration not given here. *: point of attachment. Cbz = O=C(OCc1ccccc1)*; ξL = CC(C)CC(N)C(=O)O
Key:
honey bees = assay: Honey bee survival during drug feeding; assay type: in vivo, Apis mellifera; details: 40 μM in sucrose solution for 10 days starting day 3 post-eclosion, newly emerged bees
Procedure: To assess the impact of ixazomib treatment on age-matched honey bees, newly emerged bees were fed sucrose solution containing ixazomib, ixazomib citrate, Fumagillin (all at 40 μM), or vehicle alone for 10 days starting on day 3 post-eclosion.

N. ceranae [1] = assay: N. ceranae infection in newly eclosed, experimentally infected honey bees fed proteasome inhibitors (spore counting and quantitative PCR); assay type: in vivo, Nosema ceranae; details: for infection intensity after cessation of treatment (rebound): four days treatment, then sucrose solution alone for 4 days, spore counting and DNA; for efficacy against N. ceranae infection relative to Fumagillin: feeding bees during N. ceranae infection
Description: To standardize experiments by using age-matched bees and to allow for longer treatment periods, we used newly enclosed bees and tested the effects of a number of commercially available proteasome inhibitors, including Ixazomib (MLN2238) (purchased from Selleck Chemicals), Ixazomib citrate (MLN9708) (purchased from Selleck Chemicals), Oprozomib (ONX 0912) (purchased from Selleck Chemicals), Dexazomib (purchased from Selleck Chemicals), Carfilzomib (purchased from Selleck Chemicals), Bortezomib (purchased from Selleck Chemicals), Epoxomicin (purchased from Selleck Chemicals), HMB-Val-Ser-Leu-VE (purchased from Cayman Chemical), MG-262 (purchased from APExBIO), and the two stereoisomers of MG132 (S and R) (purchased from Cayman Chemical) as well as Fumagillin (purchased from Selleck Chemicals). On day two post-eclosion, N. ceranae spores (5×10^6 ml) were fed to bees in sucrose solution ad libitum (Fries et al. 2013) for 48 hours. At 3 days post infection, honey bees in individual cages were fed sucrose solution containing one of the pharmacologic agents at 40 μM or vehicle control alone. For each trial, we tested pairs of novel compounds simultaneously with an untreated group, a Fumagillin treated group, and an Ixazomib-treated group. After 4 days of drug feeding, honey bee midguts were dissected, and infection levels were assessed by spore counting and quantitative PCR.
We focused on ixazomib and ixazomib citrate for further experiments. Again using newly eclosed bees, we treated infected bees for up to eight days with ixazomib, Fumagillin, or sucrose solution alone, and measured infection level by spore counting and DNA on days 4 and 8 post initiation of treatment (FIGS. 4A and 4B). […] Finally, the goal was to determine whether any rebound of N. ceranae infection was observed after cessation of treatment by ixazomib and ixazomib citrate as has been reported for Fumagillin (Huang et al. 2013). Infected newly eclosed bees were treated with sucrose solution containing ixazomib, ixazomib citrate, Fumagillin, or vehicle alone for four days. We then switched all cages to sucrose solution alone for 4 days and then measured infection level by spore counting and DNA. We observed that infection intensity stayed the same for bees receiving sucrose solution for the whole experiment, increased for those bees treated with Fumagillin first, and decreased for those bees fed either ixazomib or ixazomib citrate first (FIGS. 4E and 4F).

N. ceranae [2] = assay: N. ceranae infection intensity in experimentally infected honey bees fed drug in sucrose syrup; assay type: in vivo, Nosema ceranae
Procedure: that works by reacting with the β5 subunit responsible for chymotrypsin-like activity (Goldberg, 2012). After experimentally infecting bees, infected bees were fed sucrose syrup or sucrose syrup containing 500 μM MG132 for 2 days starting on day 6 post infection. On day 8 post infection, spore levels were then measured using light microscopy to determine the effects of proteasome inhibition on N. ceranae infection intensity. […] MG132 is a poorly bioavailable proteasome inhibitor with known toxicity in multicellular eukaryotes. […] Significant effort has been directed towards finding novel strategies for targeting the proteasome (Goldberg, 2012; Śledź and Baumeister, 2016; Cromm and Crews, 2017), providing a number of pharmacologic agents with better efficacy, improved bioavailability, and increased selectivity. We first tested the ability of ixazomib, a modified peptide boronic acid that binds the β5 site of the 20 S proteasome and inhibits proteasome activity (Kupperman et al. 2010), to reduce N. ceranae infection in honey bees. Ixazomib is commercially available (e.g., from Selleck Chemincals) and has the structure of […]

Encephalitozoon hellem = assay: E. hellem infection of RK-13 cells, qPCR-based assay of pathogen and host cell genome equivalents; details: four-day infection of RK-13 cells
Description: (§1) Thus, it was hypothesized that pharmacological inhibition of the UPS will reduce infection intensity of diverse microsporidia in their respective host species. To test this hypothesis, we chose to focus on Encephalitozoon hellem, a microsporidia species first described as the cause of keratoconjunctivitis in 3 AIDS patients in 1991 (Didier et al. 1991) and subsequently observed in numerous immunocompromised patients (Weiss and Becnel, 2014). The genome of E. hellem has been sequenced (Pombert et al. 2012) and it is easily culturable (Molestina et al. 2014), making it ideal for such studies.

[3] = test system: rabbit kidney cell line (RK-13) cells; assay: Rabbit cell numbers in E. hellem-infected RK-13 culture; assay type: cell-based; details: 10-100 nM ixazomib; four-day infection of RK-13 cells
Description: as §1

N. ceranae [4] = assay: N. ceranae infection in naturally infected bees from a highly infected colony; assay type: in vivo, Nosema ceranae; details: bees from a highly infected colony (prevalence>90% infected); fed 2 days vs DMSO vehicle control

**Q.** How did the honey bee survival (honey bees) turn out when `CO[C@@H]1[C@H](OC(=O)/C=C/C=C/C=C/C=C/C(=O)O)CC[C@]2(CO2)[C@H]1[C@@]1(C)O[C@@H]1CC=C(C)C` [Fumagillin] was run?
**A.** no differences in the survival between treatments

**Q.** And the “infection intensity after cessation of treatment (rebound)” value (N. ceranae [1])?
**A.** increased

**Q.** What about the “N. ceranae infection intensity, Fumagillin compared with MG132” value (N. ceranae [2]; two days of feeding Fumagillin, data not shown) of the same compound?
**A.** similar

**Q.** What about the “E. hellem infection intensity, Fumagillin compared with ixazomib” value (Encephalitozoon hellem; 50 ng/ml Fumagillin) of the same compound?
**A.** comparable

**Q.** `CCOC(=O)/C=C/[C@H](CC(C)C)NC(=O)[C@H](CO)NC(=O)[C@@H](NC(=O)c1cccc(O)c1C)C(C)C` [HMB-Val-Ser-Leu-VE] was tested. Which “infection level by relative genome equivalents” value (N. ceranae [1]; 40 μM in sucrose solution, from 3 days post infection, 4 days of drug feeding, midguts, quantitative PCR) did it give?
**A.** all tested proteasome inhibitors except HMB-Val-Ser-Leu-VE

**Q.** How did the honey bee survival (honey bees) turn out when `CC(C)C[C@H](NC(=O)CNC(=O)c1cc(Cl)ccc1Cl)B1OC(=O)C(CC(=O)O)(CC(=O)O)O1` [Ixazomib citrate] was run?
**A.** no differences in the survival between treatments

**Q.** With `CC(C)C[C@H](NC(=O)CNC(=O)c1cc(Cl)ccc1Cl)B(O)O` [Ixazomib] as the compound, how does the honey bee survival (honey bees) read?
**A.** no differences in the survival between treatments

**Q.** And the “N. ceranae infection intensity by spore counting and DNA analysis” value (N. ceranae [1]; 2.5 μM)?
**A.** diminished, but still robust, reduction in infection intensity

**Q.** What about the “impact on N. ceranae infection levels (ranking among tested inhibitors)” value (N. ceranae [1]; 40 μM, 4 days of drug feeding, spore counting and quantitative PCR) of the same compound?
**A.** most effective at reducing infection levels

**Q.** And the “efficacy against N. ceranae infection relative to Fumagillin” value (N. ceranae [1])?
**A.** better efficacy than Fumagillin

**Q.** What about the “infection intensity after cessation of treatment (rebound)” value (N. ceranae [1]) of the same compound?
**A.** decreased

**Q.** And the “N. ceranae infection level, dose and time dependence” value (N. ceranae [1]; treated up to eight days, measured days 4 and 8, spore counting and DNA analysis (FIGS. 4A-4F))?
**A.** stably reduces N. ceranae infection level in a dose and time dependent manner

**Q.** And the rabbit cell numbers [3]?
**A.** without substantial reduction in rabbit cell numbers

**Q.** What about the “N. ceranae infection by both spore-counting and DNA analysis” value (N. ceranae [4]) of the same compound?
**A.** striking reduction

**Q.** What about the “E. hellem infection intensity” value (Encephalitozoon hellem; 10-100 nM ixazomib, preliminary results) of the same compound?
**A.** reduces E. hellem infection intensity

**Q.** `CC(C)CC(NC(=O)[C@H](CC(C)C)NC(=O)OCc1ccccc1)C(=O)N[C@H](C=O)CC(C)C` (stereo partly drawn) [MG132] (Cbz-Leu-[ξL]-Leu-aldehyde) was tested. Which “efficacy against N. ceranae infection relative to Fumagillin” value (N. ceranae [1]) did it give?
**A.** not as efficacious as Fumagillin

**Q.** And the “N. ceranae infection intensity (spore levels by light microscopy)” value (N. ceranae [2]; experimentally infected bees, 500 μM MG132 in sucrose syrup for 2 days (48 hours) from day 6 post infection, measured day 8)?
**A.** dramatic reduction in infection intensity

From patent publication US20200113920A1, “COMPOSITIONS AND METHODS FOR TREATMENT OF MICROSPORIDIA INFECTION USING PROTEASOME INHIBITORS INCLUDING IXAZOMIB” (BARNARD COLLEGE, priority 2018, published 2020)
